Reference: patent publication EP4775577A1, “RAS INHIBITOR” (Tyligand Bioscience (Shanghai) Limited, priority 2023, dated 2025)
Read-outs that look alike come from different tables or passages of the source.

What was measured:
[1] = tested on: KRAS G12V mutant NCI-H727 cells; assay: Proliferation inhibition of NCI-H727 cells, 3D CellTiter-Glo assay (Method B); type: cell-based, human; details: Method B, 3D culture with 0.65% methylcellulose, 5 days, CTG, read-out: NCI-H727 IC50/nM
Method in brief: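 Cells grown in 3D medium (RPMI-1640, 10% FBS, 0.65% methylcellulose) overnight, then treated 5 days at 37 °C, 5% CO2 with 9 threefold dilutions from 10 µM top working concentration, duplicate wells. CellTiter-Glo luminescence read; IC50 (nM) fitted by dose-response-inhibition equation.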

[2] = tested on: KRAS G12D mutant AGS cells; assay: Proliferation inhibition of AGS cells, CellTiter-Glo assay; type: cell-based, human
Method in brief: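 AGS cells at 1500 cells/well in F12K + 10% FBS were exposed for 3 days at 37°C to nine 3-fold dilutions from 10 µM top concentration, in duplicate. Viability read by CellTiter-Glo luminescence; IC50 (nM) from dose-response-inhibition fitting.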

[3] = tested on: KRAS G12S mutant A549 cells; assay: Proliferation inhibition of A549 cells, 3D CellTiter-Glo assay; type: cell-based; details: Homo sapiens, A549, 120 h, read-out: A549 IC50/nM
Description: A549 cells (Nanjing Kebai Biotechnology Co., Ltd., catalog number CBP60084, adherent, culture medium (F12K Nutrient Mixture+10%FBS (GIBCO, Cat#10091-148) at 37°C, 5%CO2, and 95% humidity.
3D Cell Viability Assay: Cells in the logarithmic growth phase were harvested and counted using a platelet counter. Cell viability was assessed using the trypan blue exclusion method to ensure a viability of over 90%. The 3D cell culture medium was prepared by adding 1% MC (methylcellulose, Sigma, Cat#M0512) F-12K medium and 10% FBS. The cell concentration was adjusted to approximately 7407 cells/mL using the 3D medium, and the methylcellulose (MC) content was set to 0.65%. Then, 135 µL of cell suspension was added to each 96-well clear, flat-bottomed, black-walled plate (Greiner, Cat#655096). The cells in the 96-well plates were cultured overnight at 37°C with 5% CO2.
Drug preparation for IC50 assay: A 10-fold drug solution was prepared using culture medium. […] of the drug solution was added to each well of a 96-well plate seeded with cells to achieve a working concentration of up to 10 µM, with a 3× dilution, and 9 concentrations. 2 replicate wells for each drug concentration were set. The cells in the drug-treated 96-well plates were cultured at 37°C and 5% CO^2 for additional5 days, then CTG assay (CellTiter-Glo® Luminescent Cell Viability Assay (Promega, Cat#G7573)) were performed.
The cell plate was equilibrated to room temperature for 30 minutes and the CTG reagent was thawed. 75 µL of CTG solution was added to each well for detection, and the plate was shaken on an orbital shaker for 5 minutes to lyse the cells. The cell plate was placed at room temperature for 25 minutes to stabilize the cryo-luminescence signal and the cryo-luminescence value was read (EnVision® multi-plate reader, PerkinElmer#2105).
Data was analyzed using GraphPad Prism software. The dose-response-inhibition equation was used to fit the data to obtain the dose-response curve, and the IC50 value (nM) was calculated accordingly. [formula]

[4] = Homo sapiens, AGS, 72 h, 3 days, CTG, read-out: AGS IC50/nM

IC50 [3] [nM] | IC50 ([2]; Homo sapiens, AGS, 72 h, read-out: AGS IC50/nM, 3 days, CTG) [nM] | SMILES | IC50 ([1]; Homo sapiens, NCI-H727, 120 h) [nM] | IC50 [2, 4] [nM] | IC50 [1] [nM] | IC50 ([2]; 3 days, CTG, read-out: AGS IC50/nM) [nM]
16.5 | – | CN1CC[C@H](C(F)F)[C@](C)(COc2nc(N3CCOC[C@@](C)(O)C3)c3cc(C(F)(F)F)c(-c4cccc5sc(N)c(C#N)c45)c(F)c3n2)C1 (atropisomer, axis not shown) [Example 5A, (S)-2-amino-4-(2-(((3S,4S)-4-(difluoromethyl)-1,3-dimethylpiperidine-3-yl)methoxy)-8-fluoro-4-((S)-6-hydroxy-6-methyl-1,4-oxazol-4-yl)-6-(trifluoromethyl)quinazoline-7-yl)benzo[b]thiophene-3-carbonitrile] | < 1.5 | 1.6 | – | –
35.1 | – | CN1CC/C(=C\F)[C@](C)(COc2nc(N3CCOC[C@@](C)(O)C3)c3cc(C(F)(F)F)c(-c4cccc5sc(N)c(C#N)c45)c(F)c3n2)C1 (atropisomer, axis not shown) [Example 6A, (S)-2-amino-4-(8-fluoro-2-(((S,E)-4-(fluoromethylene)-1,3-dimethylpiperidine-3-yl)methoxy)-4-((S)-6-hydroxy-6-methyl-1,4-oxazol-4-yl)-6-(trifluoromethyl)quinazoline-7-yl)benzo[b]thiophene-3-carbonitrile] | 1.6 | 4.7 | – | –
41.8 | – | [2H]C([2H])([2H])N1CC/C(=C\F)[C@](C)(COc2nc(N3CCCn4nc(C(=O)N(C)C)cc4C3)c3cc(C(F)(F)F)c(-c4c(F)ccc5sc(N)c(C#N)c45)c(F)c3n2)C1 (atropisomer, axis not shown) [Example 68A] | 2.4 | < 1.5 | – | –
33.8 | – | C[C@H]1CCn2nc(C(=O)N(C)C)cc2CN1c1nc(OC[C@]2(C)CN(C)CC/C2=C\F)nc2c(F)c(-c3cccc4sc(N)c(C#N)c34)c(C(F)(F)F)cc12 (atropisomer, axis not shown) [Example 123A] | < 1.5 | < 1.5 | – | –
101 | – | CN1CC/C(=C\F)[C@](C)(COc2nc(N3CCCn4nc(C(=O)N(C)C)cc4C3)c3cc(C(F)(F)F)c(-c4cccc5sc(N)c(C#N)c45)c(F)c3n2)C1 (single isomer, unassigned) [Example 8A] | 4.4 | 1.5 | – | –
82.4 | – | C[C@H]1CCn2nc(C(=O)N(C)C)cc2CN1c1nc(OC[C@]2(C)CN(C)CC/C2=C\F)nc2c(F)c(-c3c(F)ccc4sc(N)c(C#N)c34)c(C3CC3)cc12 (single isomer, unassigned) [Example 162A] | 2.1 | < 1.5 | – | –
86.9 | < 1.52 | CCc1cc2c(N3CCCn4nc(C(=O)N(C)C)c(Cl)c4C3)nc(OC[C@]3(C)CN(C)CC/C3=C\F)nc2c(F)c1-c1c(F)ccc2sc(N)c(C#N)c12 (single isomer, unassigned) [Example 163A] | 3.3 | – | – | –
48 | – | CCc1cc2c(N3Cc4cc(C(=O)N(C)C)nn4CC[C@@H]3C)nc(OC[C@]3(C)CN(C)CC/C3=C\F)nc2c(F)c1-c1c(F)ccc2sc(N)c(C#N)c12 (single isomer, unassigned) [Example 164A] | < 1.5 | < 1.5 | – | –
40.7 | – | [2H]C([2H])([2H])N1CC[C@H](C(F)F)[C@](C)(COc2nc(N3CCOC[C@@](C)(O)C3)c3cc(C(F)(F)F)c(-c4ccc(F)c5sc(N)c(C#N)c45)c(F)c3n2)C1 [Example 55] | 2.4 | 13.1 | – | –
23.9 | – | CN1CC/C(=C\F)[C@](C)(COc2nc(N3CCCn4nc(C(=O)N(C)C)c(Cl)c4C3)c3cc(C(F)(F)F)c(-c4cccc5sc(N)c(C#N)c45)c(F)c3n2)C1 [Example 124] | 2.2 | < 1.5 | – | –
– | – | [2H]C([2H])([2H])N1CC/C(=C\F)[C@](C)(COc2nc(N3Cc4cc(C(=O)NC)nn4CC[C@@H]3C)c3cc(CC)c(-c4c(F)ccc5sc(N)c(C#N)c45)c(F)c3n2)C1 [Example 270A] | 4.9 | 3.6 | – | –
– | – | CCN1CC/C(=C\F)[C@](C)(COc2nc(N3Cc4c(COC)c(C(=O)N(C)C)nn4CC[C@@H]3C)c3cc(Cl)c(-c4ncc(F)c5sc(N)c(C#N)c45)c(F)c3n2)C1 [Example 271A] | 8.7 | 9.3 | – | –
– | – | CCN1CC[C@H](C(F)F)[C@](C)(COc2nc(N3Cc4c(COC)c(C(=O)N(C)C)nn4CC[C@@H]3C)c3cc(C(F)(F)F)c(-c4ncc(F)c5sc(N)c(C#N)c45)c(F)c3n2)C1 [Example 272A] | 10.4 | 12.5 | – | –
– | – | CCN1CC/C(=C\F)[C@](C)(COc2nc(N3Cc4c(COC)c(C(=O)N(C)C)nn4CC[C@@H]3C)c3cc(Cl)c(-c4c(F)ccc5sc(N)c(C#N)c45)c(OC)c3n2)C1 [Example 273A] | 26.6 | 40.6 | – | –
– | – | CCN1CC/C(=C\F)[C@](C)(COc2nc(N3Cc4cc(C(=O)N(C)C)nn4CC[C@@H]3C)c3cc(Cl)c(-c4nccc5sc(N)c(C#N)c45)c(C)c3n2)C1 [Example 276A] | 33.4 | 18.5 | – | –
– | – | CCN1CC/C(=C\F)[C@](C)(COc2nc(N3Cc4cc(C(=O)N5CC(F)C5)nn4CC[C@@H]3C)c3cc(Cl)c(-c4c(F)ccc5sc(N)c(C#N)c45)c(F)c3n2)C1 [Example 277A] | 1.8 | < 1.5 | – | –

SMILES | IC50 [3] [nM] | IC50 ([2]; Homo sapiens, AGS, 72 h, read-out: AGS IC50/nM, 3 days, CTG) [nM] | IC50 ([1]; Homo sapiens, NCI-H727, 120 h) [nM] | IC50 [2, 4] [nM] | IC50 [1] [nM] | IC50 ([2]; 3 days, CTG, read-out: AGS IC50/nM) [nM]
CN1CC/C(=C\F)[C@](C)(COc2nc(N3CCCn4nc(C(=O)N(C)C)cc4C3)c3cc(Cl)c(-c4c(F)ccc5sc(N)c(C#N)c45)c(F)c3n2)C1 (atropisomer, axis not shown; (Ra)) [Example 93A, (Ra)-5-(7-(2-amino-3-cyano-5-fluorobenzo[b]thiophene-4-yl)-6-chloro-8-fluoro-2-(((S,E)-4-(fluoromethylene)-1,3-dimethylpiperidine-3-yl)methoxy)quinazoline-4-yl)-N,N-dimethyl-5,6,7,8-tetrahydro-4H-pyrazolo[1,5-a][1,4]diazepine-2-formamide·formate] | 32.6 | – | – | – | 4.1 | < 1.5
CN1CC/C(=C\F)[C@](C)(COc2nc(N3CCCn4nc(C(=O)N(C)C)cc4C3)c3cc(C(F)(F)F)c(-c4c(F)ccc5sc(N)c(C#N)c45)c(F)c3n2)C1 (single isomer, unassigned) [Example 28A] | 31.2 | – | 1.8 | < 1.5 | – | –
[2H]C([2H])([2H])N1CC/C(=C\F)[C@](C)(COc2nc(N3Cc4cc(C(=O)N(C)C)nn4CC[C@@H]3C)c3cc(CC)c(-c4c(F)ccc5sc(N)c(C#N)c45)c(F)c3n2)C1 (single isomer, unassigned) [Example 173A] | 43.5 | – | < 1.5 | < 1.5 | – | –
[2H]C([2H])([2H])N1CC[C@H](C(F)F)[C@](C)(COc2nc(N3Cc4cc(C(=O)N(C)C)nn4CC[C@@H]3C)c3cc(CC)c(-c4c(F)ccc5sc(N)c(C#N)c45)c(F)c3n2)C1 (single isomer, unassigned) [Example 174A] | 51.9 | – | 2.5 | < 1.5 | – | –
CCc1cc2c(N3Cc4cc(C(=O)N(C)C)nn4CC[C@@H]3C)nc(OC[C@]3(C)CN(CC)CC[C@@H]3C(F)F)nc2c(F)c1-c1c(F)ccc2sc(N)c(C#N)c12 (single isomer, unassigned) [Example 176A] | 42.6 | – | < 1.5 | < 1.5 | – | –
[2H]C([2H])([2H])N1CC[C@H](C(F)F)[C@](C)(COc2nc(N3CCOC[C@@](C)(O)C3)c3cc(C(F)(F)F)c(-c4c(F)ccc5sc(N)c(C#N)c45)c(F)c3n2)C1 [Example 65A] | 26.1 | – | – | 1.5 | – | –
